Values of other authors as cited in patent US20170304164A1, “COMPOSITIONS, APPARATUS AND METHODS FOR MONITORING AND IMPROVING ORAL HEALTH” (Berkeley NOX Limited, priority 2016, published 2017).

Assays:
[1] = test system: Desulfovibrio spp.; settings: 0.2 mM nitrate
[2] = test system: Fusobacterium nucleatum; settings: under acidic conditions
[3] = test system: Eikenella corrodens; settings: under acidic conditions
[4] = test system: Streptococcus mutans; settings: 0.2 mM nitrite, acidity levels below pH 7
[5] = test system: Porphyromonas gingivalis; settings: under acidic conditions

Row | SMILES | growth [1] | growth [2] | growth [3] | effect on bacteria [4] | growth [5]
1 | O=[N+]([O-])O [nitrate] | growth is inhibited | – | – | – | –
2 | O=NO [nitrite] | – | inhibited the growth | inhibited the growth | effective complete killing | inhibited the growth
